Measurements from patent US9969972B2, “Pluripotent stem cell culture on micro-carriers” (Janssen Biotech, Inc., priority 2008, dated 2018).

Key:
H1 cells [1] = experiment: Dose titration of Rho kinase inhibitor, H1 cells on micro-carriers; assay type: cell-based, human
Description: Next a dose titration of the Rho kinase inhibitor was attempted since it has been characterized as a […]. H1 cells at passage 48 were dissociated from MATRIGEL™ (BD Biosciences, CA) coated plates with TrypLE™ Express. The cells were then seeded onto 15 cm^2 of micro-carriers into a single well of a 12 well non-tissue culture treated plate. HILLEX®II (Solohill, MI), Cytodex 1®, or Cytodex 3® (GE Healthcare Life Sciences, NJ) micro-carriers were tested with decreasing amounts of Rho kinase inhibitor: 10 μM Y27632 (Sigma-Aldrich, MO) was used on day one followed by […] on day two (Y10/5 μM); 2.5 μM Glycyl-H 1152 dihydrochloride (Tocris, MO) was used on day one followed by 0.5 μM on day two (H2.5/0.5 μM); 1 μM Glycyl-H 1152 dihydrochloride (Tocris, MO) was used on day one followed by 0.5 μM Glycyl-H 1152 dihydrochloride (Tocris, MO) on day two (H1/0.5 μM); or continuous addition of 0.25 μM Glycyl-H 1152 dihydrochloride (Tocris, MO) was applied daily in MEF-CM (H0.25 μM). H1 cells and micro-carriers were agitated every 45 minutes for 3 hours at 37° C. before being placed on a rocking platform at 37° C. Cells were counted after 3, 5 and 7 days on the rocking platform at 37° C. (FIG. 8). Overall the best concentration of Glycyl-H 1152 dihydrochloride (Tocris, MO) was 1-2.5 μM on day one and 0.5 μM on day 2 followed by withdrawal of the compound. […] Using a minimal amount of Rho-kinase inhibitor also helps reduce costs for the process and maybe beneficial to cell proliferation.

H1 and H9 cells = experiment: Attachment of H1 and H9 cells to micro-carrier beads in MEF-CM with 10 μM Y27632; assay type: cell-based, human; conditions: 10 μM in MEF-CM, static culture
Description: To improve the attachment and proliferation of human embryonic stem cells on micro-carriers, a small molecule inhibitor of Rho-associated coiled coil forming protein serine/threonine kinase, Rho kinase inhibitor was added to the media. Specifically, Y27632, Y, (Sigma-Aldrich, MO) was used. MEF-CM plus 10 μM Y27632 (Sigma-Aldrich, MO) was changed daily. […] By analysis of images, human embryonic stem cells grown on HILLEX®II micro-carriers (Solohill, MI) appeared to attach and proliferate better than human embryonic stem cells on other micro-carriers tested. Additionally, H9 cells attached better to HILLEX®II (Solohill, MI) in the presence of the Rho kinase inhibitor (FIG. 1A compared to 1B).
The H1 human embryonic cell line was also tested for growth on micro-carriers for large-scale expansion. Because a Rho kinase inhibitor, Y27632 (Sigma-Aldrich, MO), was necessary for attachment of the H9 cell line, it was also assumed to be necessary for H1 cells. Cytodex 1®, Cytodex 3® (GE Healthcare Life Sciences, NJ), HILLEX®II, Plastic, ProNectinF, Plastic Plus micro-carriers (SoloHill Ann Arbor, MI) were prepared according to the manufacturer's instructions. […] After 3, 5 and 7 days, one well was imaged, harvested, and counted. […] Cells were detached according to Example 4 and counted for yield.

H1 cells [2] = experiment: Proliferation of H1 cells on micro-carriers in defined medium; assay type: cell-based, human; conditions: H1 passage 38, MEF-CM
Description: H1 human embryonic stem cells at passage 38 were seeded onto either Cytodex 3® or HILLEX®II micro-carriers in the presence of Rho kinase inhibitors, 10 μM Y27632 (Sigma-Aldrich, MO) or 2.5 μM Glycyl-H 1152 dihydrochloride in mTESR (StemCell Technologies, Vancouver, Canada) or MEF-CM in a 12 well dish. The cells were placed on a rocking platform at 37° C. The cells were counted at days 3, 5 and 7.
Cells were incubated at 37° C. in a 10 cm^2 dish for 5 hours with agitation by hand every 45 minutes. mTESR (StemCell Technologies, Vancouver, Canada) plus 10 μM Y27632 (Sigma-Aldrich, MO) was changed every other day. This was conducted in parallel with cells grown in MEF-CM (Example 5).

H9 cells [3] = experiment: Proliferation of H9 cells on micro-carriers in defined medium; assay type: cell-based, human; conditions: H9 p64, StemPro, 2.5 μM, on Cytodex 3 micro-carriers
Excerpt: To manufacture a therapeutic product, it is desirable to remove any animal components from the human embryonic stem cell culture medium. Currently human embryonic stem cells are maintained on MATRIGEL™ (BD Biosciences, CA) in medium conditioned using mouse embryonic fibroblasts (MEF-CM). Both MATRIGEL™ (BD Biosciences, CA) and MEF-CM are derived from mouse cells. Additionally, MEF-CM is an expensive and time-consuming medium to generate. To determine if human embryonic stem cells can be sustained on micro-carriers with defined medium, H9 cells were seeded onto Cytodex 3® (GE Healthcare Life Sciences, NJ) and HILLEX®II (Solohill, MI) micro-carriers in the presence of Rho kinase inhibitors, 10 μM Y27632 (Sigma-Aldrich, MO) or 2.5 μM Glycyl-H 1152 dihydrochloride (Tocris, MO) in Stem Pro (Invitrogen, CA), mTESR (StemCell Technologies, Vancouver, Canada) or MEF-CM. The cells were placed in a 12 well dish on a rocking platform at 37° C. The cells were counted at days 3, 5 and 7. […] Therefore the micro-carrier type, Rho kinase inhibitor, and medium all play a role in determining the ability of human embryonic stem cells to proliferate.

H9 cells [4] = experiment: Rho kinase inhibitor concentration for attachment and growth of H9 cells on micro-carriers; assay type: cell-based, human; conditions: H9 passage 44, MEF-CM, rocking platform
Description: A starting aliquot of 13,333 cells/cm^2 H9 cells at passage 44 was seeded onto 15 cm^2 of micro-carriers in a single well of a 12 well non-tissue culture treated plate. The cells were placed at 37° C. for at least 60 minutes before placing them onto a rocking platform at 37° C. Prior to adding the cells, HILLEX®II (Solohill, MI) and Cytodex 3® (GE Healthcare Life Sciences, NJ) micro-carriers were prepared as directed by the manufacturer. Cells were grown in MEF-CM plus a range of Rho kinase inhibitor concentrations, Y27632 at 10, 5, 2.5 or 1 μM, or (S)-(+)-4-Glycyl-2-methyl-1-[(4-methyl-5-isoquinolinyl)sulfonyl]-hexahydro-1H-1,4-diazepine dihydrochloride (Glycyl-H 1152 dihydrochloride (H), Tocris, MO) at 5, 2.5, 1 or 0.5 μM). The medium was changed daily and one well of cells was counted at 4 and 7 days after seeding for yield and viability (FIGS. 7, A and B).

[5] = test system: H1 human embryonic stem cells; experiment: Single cell passage of H1 cells from fibroblast feeders to PRIMARIA; assay type: cell-based; conditions: feeder free/matrix free culture on PRIMARIA, greater than 8 passages
Description: Method: Cells were routinely passaged by aspirating media, washing with PBS, and then treating the cells with a dissociation enzyme (collagenase, Accutase™, or TrypLE). Collagenase was used at 1 mg/ml concentration; Accutase™ or TrypLE were used at 1× stock concentration. All enzymes were used after reaching room temperature. A solution of 2% BSA in DMEM/F12 was added to each well and cells were uniformly suspended in the solution after treating the cells with enzyme. Cells were then centrifuged for 5 minutes at 200 g, the cell pellet and additional 2% BSA in DMEM/F12 solution was added to resuspend cells and the cell suspension was distributed to three 50 ml sterile conical tubes and centrifuged for 5 min at 200 g.
Using a sequential method, the fibroblast feeders were removed by high density passaging the cluster/colony style human embryonic stem cells to a Primaria surface by treating the MEF based culture with either Accutase™, TrypLE™, or collagenase. […] Cell number for cells lifted with TrypLE™ or Accutase™ was determined by counting trypan blue stained cells with a hemocytometer. […]
2nd passage: Cells were passaged at a ratio of 1 to 4 using a 10 minutes exposure to TrypLE™ or Accutase™. A shorter enzyme exposure time, which was determined empirically by treating the cells and monitoring for detachment, was also introduced. […]

SMILES	effect of removal of the inhibitor on attachment (H1 cells [1]; H1 cells on micro-carriers)	attachment of H9 cells to micro-carriers (H1 and H9 cells)	expansion (H1 cells [2]; both micro-carrier types, 10 μM)	best concentration on day one (H1 cells [1]; H1 passage 48, MEF-CM, HILLEX II, Cytodex 1 or Cytodex 3)	best concentration on day 2 (H1 cells [1]; H1 passage 48, followed by withdrawal of the compound)	cell yield (H1 cells [1]; cells maintained in 0.25 μM continuously)	proliferation (H9 cells [3])	concentration with the best attachment (day 4) (H9 cells [4])	pluripotency and differentiation capacity of culture [5]	growth (H1 cells [2]; 2.5 μM, on Cytodex 3)
C[C@@H](N)[C@H]1CC[C@H](C(=O)Nc2ccncc2)CC1 [Y27632]	did not cause the H1 cells to dissociate	attached and formed aggregates with all micro-carriers tested	typical expansion characteristics	–	–	–	–	–	–	–
Cc1cncc2cccc(S(=O)(=O)N3CCCN(C(=O)CN)C[C@@H]3C)c12.Cl.Cl [Glycyl-H 1152 dihydrochloride, (S)-(+)-4-Glycyl-2-methyl-1-[(4-methyl-5-isoquinolinyl)sulfonyl]-hexahydro-1H-1,4-diazepine dihydrochloride]	–	–	–	1 to 2.5 µM	0.5 µM	poor cell yield	did not proliferate well	5 µM	retains pluripotency and the ability to differentiate to definitive endoderm	poor growth
